In patent US20150045410A1, “METHOD OF REGULATING CFTR EXPRESSION AND PROCESSING” (University of Iowa Research Foundation, priority 2012, published 2015):

Target: T1, CFTR-ΔF508 (Homo sapiens, UniProt P13569, DEL508-508)
T1 construct: expressed in transfected cells
Test: Cell surface ELISA (anti-HA) in HeLa cells stably expressing HA-tagged CFTR-ΔF508
Assay type: cell-based
Details: HeLa-ΔF508-CFTR-HA cells treated daily with drugs, 72 hr post-treatment, vs DMSO (FIG. 28, 29)

T1 sequence (P13569 with tags, fused parts or gaps DEL508-508): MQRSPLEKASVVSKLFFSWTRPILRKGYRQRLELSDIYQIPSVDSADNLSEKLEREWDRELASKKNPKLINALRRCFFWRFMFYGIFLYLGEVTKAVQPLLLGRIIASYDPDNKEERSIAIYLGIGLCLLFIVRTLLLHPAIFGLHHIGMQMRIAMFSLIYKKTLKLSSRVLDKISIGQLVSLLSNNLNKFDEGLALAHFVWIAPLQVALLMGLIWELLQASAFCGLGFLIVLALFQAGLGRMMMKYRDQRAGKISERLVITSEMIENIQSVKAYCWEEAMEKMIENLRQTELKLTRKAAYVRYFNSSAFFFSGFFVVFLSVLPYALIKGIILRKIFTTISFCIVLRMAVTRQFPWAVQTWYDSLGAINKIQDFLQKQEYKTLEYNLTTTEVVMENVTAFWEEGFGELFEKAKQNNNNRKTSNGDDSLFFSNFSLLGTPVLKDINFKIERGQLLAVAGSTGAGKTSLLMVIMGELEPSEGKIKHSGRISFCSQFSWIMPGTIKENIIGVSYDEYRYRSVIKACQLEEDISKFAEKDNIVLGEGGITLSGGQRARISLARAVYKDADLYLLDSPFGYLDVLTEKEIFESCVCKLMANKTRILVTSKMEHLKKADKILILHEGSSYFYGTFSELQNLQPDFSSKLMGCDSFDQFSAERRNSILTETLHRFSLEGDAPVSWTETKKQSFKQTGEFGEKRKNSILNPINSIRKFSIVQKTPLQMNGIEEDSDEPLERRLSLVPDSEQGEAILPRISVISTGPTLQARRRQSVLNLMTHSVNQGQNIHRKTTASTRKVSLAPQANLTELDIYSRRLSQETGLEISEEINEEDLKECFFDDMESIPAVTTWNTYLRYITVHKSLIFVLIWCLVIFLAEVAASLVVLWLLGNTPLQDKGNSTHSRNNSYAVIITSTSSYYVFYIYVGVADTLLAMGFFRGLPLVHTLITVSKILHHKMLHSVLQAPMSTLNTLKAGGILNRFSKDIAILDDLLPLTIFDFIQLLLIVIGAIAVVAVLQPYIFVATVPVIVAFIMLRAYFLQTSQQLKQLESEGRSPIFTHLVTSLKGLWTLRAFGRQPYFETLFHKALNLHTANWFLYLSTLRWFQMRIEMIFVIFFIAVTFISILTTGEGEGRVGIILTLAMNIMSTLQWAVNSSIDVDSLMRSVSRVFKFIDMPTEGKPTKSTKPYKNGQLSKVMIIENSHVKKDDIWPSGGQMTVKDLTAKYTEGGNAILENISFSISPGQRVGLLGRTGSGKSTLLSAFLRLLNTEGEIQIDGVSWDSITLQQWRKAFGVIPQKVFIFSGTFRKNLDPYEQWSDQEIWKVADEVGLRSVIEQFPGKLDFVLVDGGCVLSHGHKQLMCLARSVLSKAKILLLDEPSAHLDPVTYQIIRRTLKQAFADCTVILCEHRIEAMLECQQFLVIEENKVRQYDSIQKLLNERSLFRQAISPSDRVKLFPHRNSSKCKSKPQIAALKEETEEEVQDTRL

| Structure (SMILES) | surface display of ΔF508-CFTR (live cell-surface ELISA) | surface display of ΔF508-CFTR (live cell-surface ELISA) (listed as pyridostigmine) |
| --- | --- | --- |
| CN(C)C(=O)Oc1cccc([N+](C)(C)C)c1 [Neostigmine, 3-{[(dimethylamino)carbonyl]oxy}-N,N,N-trimethylbenzenaminium] | increased | – |
| CN(C)C(=O)Oc1ccc[n+](C)c1 [Pyridostigmine] | rescues ΔF508-CFTR trafficking | increased |
